pIC50: −log10 of the molar value. Structures can show the parent of a compound that is named as a salt.
Experiments:
Male Balb/cJ mice = assay: Lung neutrophilia induced by bacterial lipopolysaccharide; format: in vivo; details: 24 hours after LPS
Procedure: Male Balb/cJ mice (Iffa Credo, Lyon, France) weighing 25 g were randomly grouped in three groups: test, positive and negative control (10 animals per each group). Vehicle, beclomethasone dipropionate or test substance were applied intranasally (i.n.) to Balb/cJ mice. Thirty minutes later, 60 μl of bacterial lipopolysaccharide (LPS), dissolved in PBS at the concentration of 167 μg/ml, was given i.n. to all groups except the negative control group, which received the same volume of PBS. Animals were sacrificed after 24 hours and bronchoalveolar lavage fluid (BALF) collected for determination of neutrophils and […] and TNF-α concentration. Cytokines were measured using sandwich ELISA (R&D Systems). Statistical analysis was performed using GraphPad prism software, one-way ANOVA Turkey Kramer Multiple comparison test.

[1] = molecular target: T1, human glucocorticoid receptor (Homo sapiens, UniProt P04150); assay: Assay of binding to human glucocorticoid receptor ([3H]dexamethasone displacement in transfected COS-1 cells); details: 24 nM [3H]dexamethasone, COS-1 cells transfected with human GR alpha
T1 construct: expressed in transfected cells; host or cells: COS-1 cells, transient transfection with pcDNA3.1 Hygro(+) carrying the cloned cDNA
T1 sequence (P04150 1-777): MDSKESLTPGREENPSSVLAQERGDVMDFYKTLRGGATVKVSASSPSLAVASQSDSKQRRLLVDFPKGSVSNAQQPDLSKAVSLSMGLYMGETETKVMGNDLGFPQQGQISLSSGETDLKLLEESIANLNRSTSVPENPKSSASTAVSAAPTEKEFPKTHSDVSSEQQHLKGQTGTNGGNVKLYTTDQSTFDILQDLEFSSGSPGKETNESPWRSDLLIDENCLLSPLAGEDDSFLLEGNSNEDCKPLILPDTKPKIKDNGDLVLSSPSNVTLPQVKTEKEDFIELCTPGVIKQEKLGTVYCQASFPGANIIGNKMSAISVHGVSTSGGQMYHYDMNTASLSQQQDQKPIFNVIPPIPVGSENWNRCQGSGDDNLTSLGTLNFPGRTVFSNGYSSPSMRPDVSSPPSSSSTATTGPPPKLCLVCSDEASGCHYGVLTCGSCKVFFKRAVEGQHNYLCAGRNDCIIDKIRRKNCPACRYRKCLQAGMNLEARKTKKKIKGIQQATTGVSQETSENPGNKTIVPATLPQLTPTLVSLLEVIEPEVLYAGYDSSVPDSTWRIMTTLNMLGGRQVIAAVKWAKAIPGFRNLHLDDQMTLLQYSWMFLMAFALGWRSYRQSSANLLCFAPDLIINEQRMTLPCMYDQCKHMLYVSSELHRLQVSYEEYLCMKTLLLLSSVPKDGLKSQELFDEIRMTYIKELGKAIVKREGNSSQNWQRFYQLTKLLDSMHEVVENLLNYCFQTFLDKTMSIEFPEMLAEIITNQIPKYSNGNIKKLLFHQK
Procedure: The cells were incubated at 37° C. in an atmosphere with 5% CO2 and after 5 hours the same volume of 20% FBS/DMEM was added.

[2] = test system: Mouse T-cell hybridoma 13; assay: Inhibition of mouse T-cell hybridoma 13 proliferation as a result of apoptosis induction; format: cell-based; details: for pIC50: Mus musculus, T-cell, [3H]thymidine incorporation, overnight incubation; for inhibition of T-cell hybridoma 13 proliferation: in the concentrations from 1 μM to 1 nM
Procedure: Triplicates of test steroid dilution in RPMI medium (Institute of Immunology, Zagreb) with 10% FBS were added to a 96 well plate. […] Then 1 μCi of [^3H]thymidine (Pharmacia, Piscataway, N.J. USA) was added and the mixture was incubated for an additional 3 hours. The cells were harvested by applying a vacuum over GF/C filter (Packard). Onto each well, 30 μl of Microscynt O scintillation liquid (Packard) was added and the incorporated radioactivity was measured on a β-scintillation counter (Packard).

Male Sprague-Dawley rats = assay: Croton oil induced ear edema in male Sprague-Dawley rats; format: in vivo; details: applied topically once, n=8
Procedure: Test and reference substances, as well as vehicle (acetone), were administered topically to the inner and the outer surface of the right ear of each animal with an automatic pipette, in a volume of 60 μL/ear (30 μL/surface), thirty minutes before the croton oil challenge. Test substances were administered in the doses of 2 or 5 mg/ear/60 μL of acetone. Dexamethasone was administered in the dose of 1 mg/ear/60 μL of acetone. Thirty minutes later, 20% croton oil emulsion in acetone was applied topically to the inner and the outer surface of the right ear of each animal with an automatic pipette, in a volume of 60 μL/ear (30 μL/surface). Five hours after the challenge, animals were euthanized by asphyxiation in 100% CO2 atmosphere. For assessing the auricular edema, 8 mm discs were cut out of left and right auricular pinna and weighed. The degree of edema was calculated by subtracting the weight of 8 mm disc of the untreated ear from that of the treated contralateral ear.

Male Balb/C mice = assay: Model of lung eosinophilia in mice (OVA sensitised and challenged)
Procedure: Male Balb/C mice with a body weight of 20-25 g were randomly divided into groups, and sensitised by an i.p. injection of ovalbumin (OVA, Sigma, St. Louis, Mo. USA) on day zero and day fourteen. On the twentieth day, the mice were subjected to a challenge test by i.n. (intranasal) application of OVA (positive control or test groups) or PBS (negative control). 48 hours after i.n. application of OVA, the animals were anaesthetized and the lungs were rinsed with 1 mL of PBS. The cells were separated on Cytospin 3 cytocentrifuge (Shandon). The cells were stained in Diff-Quick (Dade) and the percentage of eosinophils was determined by differential counting of at least 100 cells.
Beclomethasone (Pliva d.d.) were used as a standard substances, with positive and negative control. The compounds were administered daily i.n. or i.p. in different doses 2 days before the challenge test and up to the completion of the test.
Corticosterone levels were determined in plasma from each animal using a kit for determination of corticosterone (R&D systems).

Sprague-Dawley rats = assay: Subcutaneous sponge implantation model; details: seven days after implantation; for thymus weight: vs vehicle
Procedure: In this model, local inflammation was followed by determination of newly formed granulation tissue together with determination of compound effects on plasma corticosterone concentration and thymus weight in Sprague-Dawley rats. Sprague-Dawley rats were purchased from Iffa Credo, Lyon, France and 10 weeks old male rats were used. […] All substances were dissolved in ethanol, applied onto sterile sponges and allowed to dry in the laminar flow cabinet prior to the sponge implantation.
On day 0, animals were anaesthetized by inhalation of Isoflurane (Abbott Laboratories Ltd., USA) and 5% oxygen, delivered in an anesthesia induction chamber (Stoelting Co., USA). Gas scavenging was provided using the Fluovac 240V system (International Market Supply, England). Anesthesia was maintained using a gas anesthesia mask (Stoelting Co., USA) and pedal reflex response where checked at intervals. The implantation area was shaved and subsequently disinfected using Pursept solution (MERZ Hygiene, Germany). Using strict aseptic procedure, two 1 cm long skin incisions were made just below the left and right regio scapularis. Small subcutaneous pockets were made on the left side of the left wound and the right side of the right wound using blunt forceps. In all animals, sponges with vehicle or dissolved substance applied were inserted on the left side and non-treated ones on the right side. Skin was closed with sutures and disinfected with Pursept solution. On day 7 rats were anaesthetized by intraperitoneal administration of Thiopental (PLIVA; 0.5 mL/100g body weight) and exanguinated by puncturing A. carolis com.
Blood was collected into Vacutainer tubes (Becton Dickinson, USA) for plasma corticosterone concentration analysis. Corticosterone levels in plasma were measured using R&D Systems kit for quantitative determination of corticosterone. Competitive ELISA was performed with alkaline phosphatase conjugated corticosterone as competitor. Samples were incubated for 2 hours, and after successive washing, substrate was added. After 1 h absorbance was measured on 405 mm. OD values are inversely correlated with increasing corticosterone concentrations. Corticosterone concentrations were calculated using calibration curve generated with corticosterone standard concentration dilutions. For assessing the thymus weight, thymuses were extirpated and weighed using the analytical balance. The reduction of thymus size in treated animals was presented as a percentage of that in control rats (0%).
For assessing the newly formed granulation tissue, sponges were carefully excised and each sponge perforated with sterile surgical sewing suture to keep it on the top of the Falcon tube during centrifugation. Tubes were centrifuged (1000 rpm per 10 minutes). […]

[3] = test system: interleukin 4, interleukin 5 and interferon γ production; assay: Inhibition of interleukin 4, interleukin 5 and interferon γ production by concanavalin-A induced murine splenocytes; format: cell-based, Balb/C mice; details: in concentrations from 1 μM to 1 nM; concanavalin-A stimulated splenocytes, 72 hours
Excerpt: Splenocytes were isolated from the spleen of Balb/C mice sacrificed by thiopental injection (Pliva, Zagreb, Croatia). Spleens were chopped and mononuclear cells separated on Histopaque 1083 (Sigma Diagnostics, St. Louis, Mo. USA Cat. No 1083-1). Into a 96-well plate, compounds diluted in RPMI medium (Institute of Immunology, Zagreb, Croatia) were pipetted with 10% foetal bovine serum (Biowhittaker) and cells (200000 per well) in the same medium, and concanavalin-A stimulator (Sigma 2002-2003 cat. No C5275) at a final concentration of […] were added. The positive control, in place of the dilution of compounds, consisted of RPMI medium with 10% foetal bovine serum and concanavalin-A in the same concentration of. Cells were incubated for 72 hours at 37° C., 95% humidity and in an atmosphere with 5% CO2. Until determination of cytokines, the cells were frozen at −70° C.
Cytokines interleukin 4, interleukin 5 and interferon γ were determined by the specific ELISA method, according to manufacturer's recommendations (R&D).
Inhibition (as percentage) was calculated using the following formula:
% inh=(1−[concentration of cytokines in sample]/[concentration of cytokines in positive control])*100

[4] = 4 mg/kg i.n., vs positive control

For `CCC(=O)OCC(=O)[C@@]1(OC(=O)CC)[C@@H](C)C[C@H]2[C@@H]3CCC4=CC(=O)C=C[C@]4(C)[C@@]3(Cl)[C@@H](O)C[C@@]21C` [Beclometbasone dipropionate, beclomethasone dipropionate, reference compound], the “concentration of IL-6 in BALF” value (Male Balb/cJ mice; 2 mg/kg i.n.) was “non-significantly decreased”, the “concentration of TNF-α in BALF” value (Male Balb/cJ mice; 2 mg/kg i.n.) was “non-significantly decreased” and the “neutrophils in BALF” value (Male Balb/cJ mice; 2 mg/kg i.n.) was “non-significantly decreased”.
`CC[C@H]1OC(=O)[C@H](C)[C@@H](O)[C@H](C)[C@@H](O)[C@](C)(O)C[C@@H](C)CN(CCCNCCC(=O)O[C@]2(C(=O)OC)[C@H](C)CC3C4CCC5=CC(=O)C=C[C@]5(C)[C@@]4(F)[C@@H](O)C[C@@]32C)[C@H](C)[C@@H](O)[C@]1(C)O` (stereo partly drawn) [Compound 7] was tested, and the “affinity for the glucocorticoid receptor (displacement of radioactive dexamethasone)” value [1] was “have affinity for the glucocorticoid receptor”, the pIC50 [2] was 6.33 and the “inhibition of T-cell hybridoma 13 proliferation” value [2] was “exhibit inhibition”.
`CC[C@H]1OC(=O)[C@H](C)[C@@H](O)[C@H](C)[C@@H](O)[C@](C)(O)C[C@@H](C)CN(CCCNCCC(=O)O[C@]2(C(=O)OC)[C@H](C)CC3C4C[C@H](F)C5=CC(=O)C=C[C@]5(C)C4[C@@H](O)C[C@@]32C)[C@H](C)[C@@H](O)[C@]1(C)O` (stereo partly drawn) [Compound 9] was tested, and the pIC50 [2] was 6.52 and the “inhibition of T-cell hybridoma 13 proliferation” value [2] was “exhibit inhibition”.
`CC[C@H]1OC(=O)[C@H](C)[C@@H](O)[C@H](C)[C@@H](O)[C@](C)(O)C[C@@H](C)CN(CCCNCCC(=O)O[C@]2(C(=O)OC)[C@H](C)CC3C4C[C@H](F)C5=CC(=O)C=C[C@]5(C)[C@@]4(F)[C@@H](O)C[C@@]32C)[C@H](C)[C@@H](O)[C@]1(C)O` (stereo partly drawn) [Compound 10 phosphate salt] was tested, and the “concentration of IL-6 in BALF” value (Male Balb/cJ mice; [4]) was “statistically significantly decreased”, the “concentration of TNF-α in BALF” value (Male Balb/cJ mice; [4]) was “statistically significantly decreased” and the “neutrophils in BALF” value (Male Balb/cJ mice; [4]) was “statistically significantly decreased”.
In the case of `CC[C@H]1OC(=O)[C@H](C)[C@@H](O)[C@H](C)[C@@H](O)[C@](C)(O)C[C@@H](C)CN(CCCNCCC(=O)O[C@]2(C(=O)OC)[C@H](C)CC3C4C[C@H](F)C5=CC(=O)C=C[C@]5(C)[C@@]4(F)[C@@H](O)C[C@@]32C)[C@H](C)[C@@H](O)[C@]1(C)O` (stereo partly drawn) [Compound 10], the “reduction of ear edema” value (Male Sprague-Dawley rats; 2 mg/ear) was 51.58%, the “reduction of ear edema” value (Male Sprague-Dawley rats; 5 mg/ear) was 85.53% and the “number of eosinophils in the lung rinse with respect to positive control” value (Male Balb/C mice; t-test, p<0.05) was “statistically significantly reduced”. The “affinity for the glucocorticoid receptor (displacement of radioactive dexamethasone)” value [1] was “have affinity for the glucocorticoid receptor”, the pIC50 [2] was 7.38 and the “inhibition of T-cell hybridoma 13 proliferation” value [2] was “exhibit inhibition”. The granulation tissue formation (Sprague-Dawley rats; 10 mg/sponge, vs non-treated and vehicle sponges) was “significantly reduced” and the “inhibition of the production of cytokines” value [3] was “inhibits the production of cytokines”.
In the case of `CC[C@H]1OC(=O)[C@H](C)[C@@H](O)[C@H](C)[C@@H](O)[C@](C)(O)C[C@@H](C)CN(CCCNCCC(=O)O[C@]2(C(=O)OC)CCC3C4C[C@H](C)C5=CC(=O)C=C[C@]5(C)C4[C@@H](O)C[C@@]32C)[C@H](C)[C@@H](O)[C@]1(C)O` (stereo partly drawn) [Compound 13], the pIC50 [2] was 6.54.
In the case of `CC[C@H]1OC(=O)[C@H](C)[C@@H](O)[C@H](C)[C@@H](O)[C@](C)(O)C[C@@H](C)CN(CCCNC(=O)CCCCCCCCCCCNCCC(=O)O[C@]2(C(=O)OC)[C@H](C)CC3C4C[C@H](F)C5=CC(=O)C=C[C@]5(C)[C@@]4(F)[C@@H](O)C[C@@]32C)[C@H](C)[C@@H](O)[C@]1(C)O` (stereo partly drawn) [Compound 14], the pIC50 [2] was 6.34.
Work on `CCOC(=O)[C@@]1(OC(=O)CCNCCCN2C[C@H](C)C[C@@](C)(O)[C@H](O)[C@@H](C)[C@H](O)[C@@H](C)C(=O)O[C@H](CC)[C@@](C)(O)[C@H](O)[C@H]2C)[C@H](C)CC2C3C[C@H](F)C4=CC(=O)C=C[C@]4(C)[C@@]3(F)[C@@H](O)C[C@@]21C` (stereo partly drawn) [Compound 16] yielded a pIC50 [2] of 6.95.
With `CC[C@H]1OC(=O)[C@H](C)[C@@H](O)[C@H](C)[C@@H](O)[C@](C)(O)C[C@@H](C)CN(CCCCNCCC(=O)O[C@]2(C(=O)OC)[C@H](C)CC3C4C[C@H](F)C5=CC(=O)C=C[C@]5(C)[C@@]4(F)[C@@H](O)C[C@@]32C)[C@H](C)[C@@H](O)[C@]1(C)O` (stereo partly drawn) [Compound 17] the “reduction of ear edema” value (Male Sprague-Dawley rats; 5 mg/ear) was 76.59% and the pIC50 [2] was 7.38.
With `CC[C@H]1OC(=O)[C@H](C)[C@@H](O)[C@H](C)[C@@H](O)[C@](C)(O)C[C@@H](C)CN(CCCCCCNCCC(=O)O[C@]2(C(=O)OC)[C@H](C)CC3C4C[C@H](F)C5=CC(=O)C=C[C@]5(C)[C@@]4(F)[C@@H](O)C[C@@]32C)[C@H](C)[C@@H](O)[C@]1(C)O` (stereo partly drawn) [Compound 18] the pIC50 [2] was 6.32.
In the case of `C[C@@H]1C[C@H]2[C@@H]3CCC4=CC(=O)C=C[C@]4(C)[C@@]3(F)[C@@H](O)C[C@]2(C)[C@@]1(O)C(=O)CO` [Dexamethasone, reference compound], the “reduction of ear edema” value (Male Sprague-Dawley rats; 1 mg/ear) was 85.77%.
In the case of `C[C@H]1C[C@H]2[C@@H]3CCC4=CC(=O)C=C[C@]4(C)[C@@]3(Cl)[C@@H](O)C[C@]2(C)[C@@]1(O)C(=O)CO` [beclomethasone], the plasma corticosterone levels (Male Balb/C mice; 1 mg/kg intranasally, mice) was “significantly suppressed”, the thymus weight (Sprague-Dawley rats; 2 mg/sponge) was “significantly decreased” and the thymus weight (Sprague-Dawley rats; 10 mg/sponge) was “significantly decreased”. The plasma corticosterone concentration (Sprague-Dawley rats; 10 mg/sponge, vs vehicle control) was “significantly decreased”.
